Data: US9290427B2, “Anti-invasive compounds” (Universiteit Gent, priority 2012, dated 2016)

Columns and labels:
[1] = test system: MCF-7/6 mammary carcinoma cells; experiment: chick heart invasion assay; type: cell-based, human; set-up: unit not given here
Text: “Anti-invasive” or “anti-invasive activity” is the ability to inhibit the invasiveness of tumor cells. Invasion by tumor cells is defined as the progressive occupation and destruction of their environment, and is the result of matrix degradation and directional cell motility. Anti-invasive activity of a compound is the ability to inhibit or block invasion, and can be assessed by counting the number of invading cells, by the depth of their invasion and/or by the amount of environmental destruction. Many assays in vitro can be applied to test for anti-invasive activity (for a complete list see Bracke et al. 2008). The three most popular ones are: • Chick heart invasion assay (Bracke et al., 2001, see details below). The cut-off value is between grade II (non-invasive) and grade III (invasive). […] Collagen gels, prepared on the bottom of plastic wells are covered with a test cell suspension, and incubated with liquid culture medium for 24 h. Invasion is evaluated with an inverted phase-contrast microscope, and is based on the percentage of cells showing extensions in the gel. […] Matrigel is a mixture of basement membrane components, and is applied as a semi-solid layer on top a filter with pores allowing the transgression of cells. The test cell suspension is seeded on top of the gel, and incubated for 1 day in a two-compartment chamber system. Invasion is then evaluated via the percentage of cells that are attached to the lower side of the filter.
In the chick heart invasion assay cancer cells are confronted with a fragment of normal tissue, so as not to neglect the contribution of the host tissue in the micro-ecosystem that governs tumor behavior. As such, precultured heart tissue fragments (PHFs), dissected from 9-day-old chicken embryos, may be confronted with aggregates of human invasive MCF-7/6 mammary carcinoma cells in the presence of a certain concentration of a test compound. After eight days, the interaction between the cancer cells and the PHF is evaluated histologically and classified along a 5-grades subjective scale (Bracke et al., 2001). Grades III and IV are typical for invasion, while grades 0, I and II correspond to absence of invasion. Compounds that inhibit invasion of confronting cancer cells i.e. from III/IV to 0/I/II, are determined as anti-invasive. Possible alternative assays generally known in the art are the type I collagen invasion assay, wound healing assay and the matrigel invasion assay.
“Anti-invasive” refers to the ability to inhibit invasion of the tumor or cancer cell into surrounding tissue (within or outside the organ of origin). […] This screening method confronts cancer cells with a fragment of normal tissue, so as not to neglect the contribution of the host tissue in the micro-ecosystem that governs tumor behavior. The interaction between the cancer cells and the normal tissue is evaluated histologically and classified along a 5-grades subjective scale. Grades III and IV are typical for invasion, while grades 0, I and II correspond to absence of invasion. Compounds that inhibit invasion of confronting cancer cells i.e. from III/IV to 0/I/II, are determined as anti-invasive. Possible alternative assays generally known in the art are the type I collagen invasion assay and the Matrigel invasion assay.
The potency of these molecules had been evaluated by means of the chick heart invasion assay, as described herein before.

[2] = test system: MCF-7/LucF5 cells; experiment: SRB test, MCF-7/LucF5; type: cell-based, human
Protocol: (§1) The SRB assay is used to evaluate growth effects on cells, and measures the total protein content. In this test, 5,000 cells are seeded in a cup of a 96-well plate. Upon a 24 h-attachment period, cells are treated with a certain amount of the test molecule (dissolved in DMSO). After a pre-chosen incubation time, cells are fixed with 50 μL of 50% trichloroacetic acid (2° C., 1 h). Afterward, the plate is rinsed five times with tap water, and air dried overnight.
(§2) Next, proteins are stained with 75 μL of a 0.4% solution of SRB in AcOH (30 min). Unbound SRB is subsequently removed by washing with a 1% solution of glacial AcOH, whereupon the plate is air dried. Then, bound SRB is redissolved in 100 μL of a 10 mmol·L^−1 tris(hydroxymethyl)aminomethane (Tris) buffer (pH=10.5), after which optical density is determined at 490 nm with a spectrophotometer.
(§3) In order to further validate the use of the MCF-7/LucF5 cells in our in vivo experiments, the effects of 4-fluoro-3′,4′,5′-trimethoxychalcone on this cell line in the MTT and SRB assays were determined as well (Van Hoorde L. et al., 1999).

[3] = test system: CT5.3 myofibroblasts; experiment: SRB test, CT5.3; type: cell-based, human; conditions: 10 μmol·L−1, 24 h, decreasing trend, not significant
Protocol: as §1, §2
(§4) In order to verify whether the antiproliferative effects of compound 49, witnessed in BLM and MCF-7/6 cells at high concentrations, were cell specific, additional SRB and MTT assays on a further five cell lines (HCT8-E11, TR146, FaDu, 3T3-L1 and CT5.3) were conducted (FIG. 8). The results for MCF-7/6 cells were added to facilitate comparison.
(§5) The CT5.3 cell line consists of human myofibroblasts which were isolated from a colon tumor (Van Hoorde et al., 1999). […]

[4] = test system: FaDu cells; experiment: SRB test, FaDu; type: cell-based, human; conditions: 1 or 10 μmol·L−1, 24 h
Protocol: as §1, §2, §4, §5

[5] = test system: 3T3-L1 cells; experiment: MTT test, 3T3-L1; type: cell-based, murine; conditions: 10 μmol·L−1, 24 h
Protocol: (§6) An MTT test provides an indication of cell viability, proliferation and activity through determination of the mitochondrial conversion of 3-(4,5-dimethylthiazol-2-yl)-2,5-diphenyltetrazolium bromide (MTT), a yellow salt, into formazan, a salt that precipitates under the form of blue crystals.
(§7) In concreto, 5,000 cells are seeded in a cup of a 96 well-plate, treated with the desired amount of the test substance, and incubated for a chosen period of time. Next, 40 μL of a filtered (0.2 μm) 5 mg·mL^−1 solution of MTT in PBS is added to the cup. After 2 h of incubation at 37° C. in the dark, all liquid is removed. The obtained formazan salts are dissolved in 200 μL of DMSO, whereupon optical density is measured at 490 nm.
as §4
The CT5.3 cell line consists of human myofibroblasts which were isolated from a colon tumor (Van Hoorde et al., 1999). 3T3-L1 cells are murine fibroblasts, originating from embryo's of Swiss mice (Todaro and Green, 1963). HCT8-E11, FaDu and TR146 are human epithelial cancer cell lines. […]

[6] = test system: MCF-7/LucF5 cells; experiment: MTT test, MCF-7/LucF5; type: cell-based, human
Protocol: as §6, §7, §3

[7] = elevated concentrations 10-100 μmol·L−1, summary

COc1cc(C(=O)/C=C/c2ccc(F)cc2)cc(OC)c1OC [Compound 49, (2E)-3-(4-Fluorophenyl)-1-(3,4,5-trimethoxyphenyl)propenone]
Actual in vitro activity class ([1]; compounds 37-51, Table 11): −2 (about 0.01)
Actual class ([1]; training set compounds 37-51, class = log cmin, lowest concentration with invasion grade I or II): −2 (about 0.01)
cell count ([2]; 1 and 0.1 μmol·L−1, 72 h (p=0.0703 and 0.0538)): marginally significant reduction
total protein content ([2]; 100 or 10 μmol·L−1, 72 h (p=0)): significant reduction
reduction in total protein content [2, 7]: ~50%
change in total protein content [3]: −15%
total protein content versus solvent control [4]: no significant differences
reduction in mitochondrial activity [5]: 30%
mitochondrial activity ([6]; 0.1 μmol·L−1, 72 h (p=0.0196)): significant reduction
viability (mitochondrial activity) ([6]; 0.1 μmol·L−1, 144 h): restoration of viability to the control level
mitochondrial activity ([6]; 100 and 10 μmol·L−1, 72 and 144 h): significant reduction
reduction in mitochondrial activity [6, 7]: ~50%
